Here are results for 4 compounds from patent publication US11925690B2, “Bifunctional molecules for targeting Rpn11” (AMPHISTA THERAPEUTICS LTD, priority 2018, dated 2024).

The target of data set [1] is T1, Brd4 (L) (Homo sapiens, UniProt O60885).
T1 construct: endogenous in cells; host or cells: HEK293 (CRL-1573), HeLa (CCL-2)
In words: Concentration-dependent BET degradation, immunoblot. Type of data set: cell-based. The note with it: 4 h, 1 nM-10 μM. The method, then:
(§1) Immunoblotting. Proteins were separated by SDS-PAGE on NuPage 4-12% Bis-Tris gels, followed by transfer to Amersham Protran 0.45 NC nitrocellulose membrane (GE Healthcare) using wet transfer. Membranes were blocked using 5% w/v milk in Tris-buffered saline (TBS) with 0.1% Tween-20. Blots were probed (overnight at 4 °C) using anti-Brd2 (Abcam ab139690, 1:2,000 dilution), anti-Brd3 (Abcam ab50818, 1:500 dilution), and anti-Brd4 (Abcam ab128874, 1:1,000 dilution) primary antibodies, as appropriate. The next day, blots were washed with TBST and incubated (1 h at Room temperature) with anti-Tubulin hFAB-rhodamine (BioRad, 12004166) primary antibody, and either anti-rabbit IRDye 800CW (Licor 1:1,000 dilution) or anti-mouse IRDye 800CW (Licor 1:1,000 dilution) secondary antibody. Blots were developed using a Bio-Rad ChemiDoc MP Imaging System, and band quantification was performed using Image Studio software (LiCor). Band intensities were normalized to the tubulin loading control and reported as % of the average 0.1% DMSO vehicle intensity. Degradation data was plotted and analysed using Prism (Graphpad, version 8).
(§2) HeLa (5×10^5) and HEK293 (1×10^6) cells were seeded in standard 6-well plates (2 mL medium) overnight before treatment with compounds at the desired concentration (1 nM-10 μM), with a final DMSO concentration of 0.1% v/v. After 4 h treatment time, cells were washed with DPBS (Gibco) and lysed using 85 μL RIPA buffer (Sigma-Aldrich) supplemented with cOmplete Mini EDTA-free protease inhibitor cocktail (Roche) and benzonase. Lysates were clarified by centrifugation (20000 g, 10 min, 4° C.) and the total protein content of the supernatant was quantified using a Bradford colorimetric assay. Samples were prepared using equal amounts of total protein and LDS sample buffer (Invitrogen). Band intensities were normalized to the tubulin loading control and reported as % of the average 0.1% DMSO vehicle intensity. Degradation data was plotted and analysed using Prism (Graphpad, version 8).
(§3) MZ1 and 11JQ17 were used at 1 μM for positive and negative controls, respectively. […] For the table, Dmax: +(Dmax≤25%); ++(26%≤Dmax≤50%); +++(51%≤Dmax≤70%); ++++(71%≤DC50: A (DC50≤50 nM); B (51 nM≤DC50≤500 nM); C (501 nM≤DC50).
(In general: In western blotting, separated proteins are transferred to a membrane and probed.)

In data set [2] the target is T2, Brd4 (S) (Homo sapiens, UniProt O60885).
T2 construct: endogenous in cells; host or cells: HEK293 (CRL-1573), HeLa (CCL-2)
The data set is described as above. Format: cell-based. The note with it: 4 h, 1 nM-10 μM. The method, then:
as §1, §2, §3

In data set [3] the target is T3, Brd2 (Homo sapiens, UniProt P25440). In words: Time-dependent BET degradation, immunoblot. Format: cell-based. The conditions noted are these: HEK293, Brd2, 1 μM. The method, then:
as §1
as §2, with “HEK293” for “HeLa (5×10^5) and HEK293”, “(0.5×10^6)” for “(1×10^6)”, “1 μM concentration,” for “the desired concentration (1 nM-10 μM),”, “incubation for the desired time (0-24 hrs),” for “4 h treatment time,”, “complete” for “cOmplete”
(§4) MZ1 and 11JQ17 were used at 1 μM (4 h) for positive and negative controls, respectively. […]

For data set [4], the target named is T4, Brd3 (Homo sapiens, UniProt Q15059). The data set is described as follows: Time-dependent BET degradation, immunoblot. Format: cell-based. The conditions noted are these: HEK293, Brd3, 1 μM. The method, then:
as §1
as §2, with “HEK293” for “HeLa (5×10^5) and HEK293”, “(0.5×10^6)” for “(1×10^6)”, “1 μM concentration,” for “the desired concentration (1 nM-10 μM),”, “incubation for the desired time (0-24 hrs),” for “4 h treatment time,”, “complete” for “cOmplete”
as §4

For data set [5], the target named is T1, Brd4 (L). In words: Time-dependent BET degradation, immunoblot. The conditions noted are these: HEK293, Brd4 (L). Format: cell-based. More on the design: Dmax: dose or concentration left out as unconfirmed. The method, then:
as §1
as §2, with “HEK293” for “HeLa (5×10^5) and HEK293”, “(0.5×10^6)” for “(1×10^6)”, “1 μM concentration,” for “the desired concentration (1 nM-10 μM),”, “incubation for the desired time (0-24 hrs),” for “4 h treatment time,”, “complete” for “cOmplete”
as §4

In data set [6] the target is T2, Brd4 (S). The data set is described as follows: Time-dependent BET degradation, immunoblot. The note with it: HEK293, Brd4 (S). Format: cell-based. Also on record: Dmax: dose or concentration left out as unconfirmed. The method, then:
as §1
as §2, with “HEK293” for “HeLa (5×10^5) and HEK293”, “(0.5×10^6)” for “(1×10^6)”, “1 μM concentration,” for “the desired concentration (1 nM-10 μM),”, “incubation for the desired time (0-24 hrs),” for “4 h treatment time,”, “complete” for “cOmplete”
as §4

In data set [7] the target is T3, Brd2. The data set is described as follows: Concentration-dependent BET degradation, immunoblot. The conditions noted are these: 1 nM-10 μM. More on the design: endogenous in cells; host or cells: HEK293 (CRL-1573), HeLa (CCL-2). Type of data set: cell-based. The method, then: as §1, §2, §3
Data set [8] concerns the target T4, Brd3. Described as above. Format: cell-based. More on the design: endogenous in cells; host or cells: HEK293 (CRL-1573), HeLa (CCL-2). The conditions noted are these: 1 nM-10 μM. The method, then:
as §1, §2, §3

For another data set, the target named is T5, Brd4 (Homo sapiens, UniProt O60885).
T5 construct: immunoblot analysis of Brd4 following 4 h treatment of HEK293 cells; endogenous in cells; host or cells: HEK293 (CRL-1573)
The data set is described as follows: Mechanistic evaluation: Brd4 degradation after inhibitor pre-treatment. Type of data set: cell-based. The conditions noted are these: HEK293, 1 μM degrader 4 h. The method, then:
HeLa (5×10^5) and HEK293 (1×10^6) cells were seeded in standard 6-well plates (2 mL medium) overnight before pre-treatment with inhibitors (10 μM bortezomib, 10 μM capzimin, 10 μM JQ1). After a 0.5 h pre-incubation time, cells were subsequently treated with vehicle, 1 μM MZ1 or 1 μM 11JQ15, yielding a final overall DMSO concentration of 0.2% v/v. After 4 h incubation, cells were washed with DPBS (Gibco) and lysed using 85 μL RIPA buffer (Sigma-Aldrich) supplemented with cOmplete Mini EDTA-free protease inhibitor cocktail (Roche) and benzonase. Lysates were clarified by centrifugation (20000 g, 10 min, 4° C.) and the total protein content of the supernatant was quantified using a Bradford colorimetric assay. Samples were prepared using equal amounts of total protein and LDS sample buffer (Invitrogen).
Brd4 band intensities were normalized to tubulin loading control and reported in FIG. 6B as % of the average 0.1% DMSO vehicle intensity. Each bar is mean±SEM of three independent experiments performed in duplicate (n=3).

A further data set has as its system human cancer cell lines. The note with it: cited from earlier work.
The mark [9] stands for this setting: time to deplete 50% of the protein relative to DMSO.
[10] abbreviates: 1 μM, time to deplete 50% of the protein relative to DMSO.
Setting [11] is: 1 μM, time to reach 50% of the Dmax.

Bounds are passed on as bounds.

T4 sequence (Q15059 whole entry): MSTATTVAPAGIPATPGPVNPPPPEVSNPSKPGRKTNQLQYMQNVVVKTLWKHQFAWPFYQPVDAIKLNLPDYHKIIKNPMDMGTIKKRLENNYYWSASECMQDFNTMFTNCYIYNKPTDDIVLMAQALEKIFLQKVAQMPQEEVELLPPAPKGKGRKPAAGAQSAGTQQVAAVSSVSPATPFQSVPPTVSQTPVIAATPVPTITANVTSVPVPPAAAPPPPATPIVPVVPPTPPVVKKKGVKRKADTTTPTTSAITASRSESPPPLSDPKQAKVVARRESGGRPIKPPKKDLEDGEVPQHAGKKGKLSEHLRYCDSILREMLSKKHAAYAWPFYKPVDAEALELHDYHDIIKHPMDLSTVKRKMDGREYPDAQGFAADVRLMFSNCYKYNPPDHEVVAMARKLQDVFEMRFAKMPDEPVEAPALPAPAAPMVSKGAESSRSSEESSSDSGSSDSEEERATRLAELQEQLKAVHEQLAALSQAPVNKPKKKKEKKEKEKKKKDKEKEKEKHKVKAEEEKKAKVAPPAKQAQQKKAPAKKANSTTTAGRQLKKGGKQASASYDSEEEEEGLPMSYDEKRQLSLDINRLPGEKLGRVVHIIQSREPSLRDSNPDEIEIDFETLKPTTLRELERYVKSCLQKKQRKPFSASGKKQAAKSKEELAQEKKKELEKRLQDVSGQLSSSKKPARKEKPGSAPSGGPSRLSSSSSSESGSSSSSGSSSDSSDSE
T3 sequence (P25440 whole entry): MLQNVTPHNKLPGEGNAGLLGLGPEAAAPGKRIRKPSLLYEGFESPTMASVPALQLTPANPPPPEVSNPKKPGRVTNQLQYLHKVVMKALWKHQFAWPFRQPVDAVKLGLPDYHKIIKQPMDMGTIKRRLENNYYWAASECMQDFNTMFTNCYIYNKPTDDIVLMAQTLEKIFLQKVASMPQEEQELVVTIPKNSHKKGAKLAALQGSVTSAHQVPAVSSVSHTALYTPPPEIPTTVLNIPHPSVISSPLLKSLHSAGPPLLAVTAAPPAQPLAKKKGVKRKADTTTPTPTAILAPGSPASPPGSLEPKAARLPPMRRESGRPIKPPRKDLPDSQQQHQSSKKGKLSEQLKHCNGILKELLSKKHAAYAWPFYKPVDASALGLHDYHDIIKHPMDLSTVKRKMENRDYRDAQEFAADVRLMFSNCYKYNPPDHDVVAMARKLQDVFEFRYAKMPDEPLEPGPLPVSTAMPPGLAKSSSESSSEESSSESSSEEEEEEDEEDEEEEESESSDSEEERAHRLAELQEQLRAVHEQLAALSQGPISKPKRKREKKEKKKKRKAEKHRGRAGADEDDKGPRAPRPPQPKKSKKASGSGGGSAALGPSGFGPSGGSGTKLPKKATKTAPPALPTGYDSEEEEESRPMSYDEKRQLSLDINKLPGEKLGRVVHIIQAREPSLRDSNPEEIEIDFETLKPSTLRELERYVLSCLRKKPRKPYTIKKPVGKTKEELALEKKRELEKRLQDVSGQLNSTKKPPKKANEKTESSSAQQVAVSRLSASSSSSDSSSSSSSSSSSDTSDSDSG

For the compound `Cc1sc2c(c1C)C(c1ccc(Cl)cc1)=N[C@@H](CC(=O)NCCOCCNC(=O)c1cc(S)c3ncc(C(=O)NCCc4nccs4)cc3c1)c1nnc(C)n1-2` [Example 11JQ1], the DC50 (as a rule, the concentration giving 50% degradation) on Brd4 (L) [1] (HEK293, Brd4 (L)) is 51 to 500 nM; on Brd4 (L) [1] (HeLa), 51 to 500 nM; on Brd4 (S) [2] (HEK293, Brd4 (S)) it was 51 to 500 nM; at Brd4 (S) [2] (HeLa), 51 to 500 nM; at Brd2 [7] (HEK293, Brd2, 4 h), 51 to 500 nM; on Brd2 [7] (HeLa, Brd2, 4 h), 51 to 500 nM. Also, the DC50 on Brd3 [8] (HEK293, Brd3, 4 h) is at least 501 nM; at Brd3 [8] (HeLa, Brd3, 4 h) it was at least 501 nM. Further, the Dmax (usually the largest share of the target that was removed) was at least 71% on Brd4 (L) [1] (HEK293, Brd4 (L)); at least 71% on Brd4 (L) [1] (HeLa); at least 71% on Brd4 (S) [2] (HEK293, Brd4 (S)); at least 71% at Brd4 (S) [2] (HeLa); 95% on Brd4 (L) [5] (0-24 hrs); 95% at Brd4 (S) [6] (0-24 hrs). Also, the Dmax on Brd2 [7] (HEK293, Brd2, 4 h) is at least 71%; at Brd2 [7] (HeLa, Brd2, 4 h), 26 to 50%; on Brd3 [8] (HEK293, Brd3, 4 h) it was 51 to 70%; at Brd3 [8] (HeLa, Brd3, 4 h), 51 to 70%. Also, the Dmax at 1 µM amounted to 60% on Brd2 [3] (0-24 hrs) and 90% at Brd3 [4] (0-24 hrs). In addition, the “Abs. T1/2” value on Brd2 [3] (setting [9]) is given as 3.5 h; at Brd3 [4] (setting [9]), 3.5 h; on Brd4 (L) [5] (setting [10]), 1.7 h; at Brd4 (S) [6] (setting [10]) it was 1.9 h. Besides, the “T1/2” value is listed as 1.0 h on Brd2 [3] (time to reach 50% of the Dmax), 2.7 h at Brd3 [4] (time to reach 50% of the Dmax), 1.6 h at Brd4 (L) [5] (setting [11]) and 2 h at Brd4 (S) [6] (setting [11]).

In the case of `Cc1sc2c(c1C)C(c1ccc(Cl)cc1)=N[C@@H](CC(=O)NCCCCNC(=O)c1cc(S)c3ncc(C(=O)NCc4ccc(F)cc4)cc3c1)c1nnc(C)n1-2` [Example 11JQ12], the DC50 at Brd4 (L) [1] (HEK293, Brd4 (L)) was 51 to 500 nM; on Brd4 (L) [1] (HeLa), at least 501 nM; on Brd4 (S) [2] (HEK293, Brd4 (S)) it was 51 to 500 nM; on Brd4 (S) [2] (HeLa) it was at least 501 nM; at Brd2 [7] (HEK293, Brd2, 4 h), at least 501 nM; at Brd2 [7] (HeLa, Brd2, 4 h), at least 501 nM. Besides, the DC50 is at least 501 nM at Brd3 [8] (HEK293, Brd3, 4 h) and at least 501 nM at Brd3 [8] (HeLa, Brd3, 4 h). Moreover, the Dmax at Brd4 (L) [1] (HEK293, Brd4 (L)) is at least 71%; at Brd4 (L) [1] (HeLa), at least 71%; on Brd4 (S) [2] (HEK293, Brd4 (S)), at least 71%; on Brd4 (S) [2] (HeLa), at least 71%; at Brd2 [7] (HEK293, Brd2, 4 h), 26 to 50%; on Brd2 [7] (HeLa, Brd2, 4 h) it was 26 to 50%. Moreover, the Dmax on Brd3 [8] (HEK293, Brd3, 4 h) is 26 to 50%; at Brd3 [8] (HeLa, Brd3, 4 h), at most 25%.

`Cc1ncsc1-c1ccc(CNC(=O)[C@@H]2C[C@@H](O)CN2C(=O)[C@@H](NC(=O)COCCOCCOCCNC(=O)C[C@@H]2N=C(c3ccc(Cl)cc3)c3c(sc(C)c3C)-n3c(C)nnc32)C(C)(C)C)cc1` [MZ1, reference compound]: the “Brd4 degradation in the presence of JQ1” value on Brd4 (10 μM JQ1 pre-treatment 0.5 h) is on record as “blocked”. Also, the “Brd4 degradation in the presence of bortezomib” value on Brd4 (10 μM bortezomib pre-treatment 0.5 h) was “blocked”. Also, the “Brd4 degradation in the presence of capzimin” value at Brd4 (10 μM capzimin pre-treatment 0.5 h) is “only blocked by bortezomib and JQ1”.

Regarding `Cn1c(COP(=O)(NCCBr)NCCBr)cnc1[N+](=O)[O-]` [TH-302, (1-methyl-2-nitro-1H-imidazole5-yl) N, N0-bis (2-bromoethyl) diamidophosphate], the cytotoxic potency entry with human cancer cell lines (hypoxic conditions) is “greatly enhanced cytotoxic potency”. Also, in the data set on human cancer cell lines (normoxic conditions), the cytotoxic activity entry is given as “little cytotoxic activity”.
